Literature values, collected in patent US20140004177A1, “COX-2 INHIBITORS AND RELATED COMPOUNDS, AND SYSTEMS AND METHODS FOR DELIVERY THEREOF” (Strategic Science & Technologies, LLC, priority 2010, published 2014).

CS(=O)(=O)c1ccc(C2=C(c3ccccc3)C(=O)OC2)cc1 [rofecoxib]
pKa: 19.7
